Test results: ChEMBL document CHEMBL1124056, “Derivatives of the muscarinic agent N-methyl-N-(1-methyl-4-pyrrolidino-2-butynyl)acetamide” (J Med Chem, 1988)

Assays:
[1] = species: Cavia porcellus; assay: Concentration that elicits 50% of its own maximum contractile response, in guinea pig ileum; assay type: functional
[2] = biological target: Muscarinic acetylcholine receptor; assay: Equilibrium dissociation constant muscarinic receptor complex, measured in guinea pig ileum; assay type: functional, tissue-based, Cavia porcellus
[3] = species: Cavia porcellus; assay: Efficacy relative to that of carbachol, measured in guinea pig ileum; assay type: functional
[4] = species: Cavia porcellus; assay: Equipotent molar ratio relative to that of carbachol, which equals 1, in guinea pig ileum; assay type: functional
[5] = species: Cavia porcellus; assay: Maximum contractile response relative to that elicited by carbachol, in guinea pig ileum; assay type: functional
[6] = species: Mus musculus; assay: Dose required to double the dose of oxotremorine inducing a predetermined (grade 2) tremor intensity in mice; assay type: functional
[7] = species: Mus musculus; assay: Dose required to double the dose of oxotremorine inducing a predetermined (grade 2) tremor intensity in mice; g=Agonist; assay type: functional, organism-based; conditions: filed as agonist

SMILES | Kd [2] [µM] | EC50 [1] [µM] | Relative efficacy [3] | EPMR [4] | Emax [5] | Tremorolytic dose [6] [µM/kg] | Tremorolytic dose [7]
CC(=O)N(CC#CC[N+](C)(C)C)C(C)=O | 8.2 | 2 | 0.034 | 19.3 | 1 | – | –
C[N+](C)(C)CCOC(N)=O.[Cl-] [CARBACHOL] | – | 0.11 | – | 1 | 1 | – | –
CC(=O)N(CC#CCN1CCCC1)S(C)(=O)=O | 17.9 | – | – | – | – | >200 | –
O=C1CCC(=O)N1CC#CCN1CCCC1 | 5 | 1 | 0.027 | – | 0.98 | 23 | –
CN(C)CC#CCN1C(=O)CCC1=O | 208 | 2.5 | 0.35 | – | 1.01 | – | Agonist
CCN(CC)CC#CC(C)N(C(C)=O)C(C)=O (configuration not stated) | 1.6 | – | – | – | 0 | 39 | –
CC(=O)N(CC#CCN1CCCC1)C(C)=O | 0.44 | – | – | – | 0 | 2.9 | –
CC(=O)N(C(C)=O)C(C)C#CCN1CCCC1 (configuration not stated) | 0.28 | – | – | – | 0 | 3.2 | –
CN(CC#CCN1CCCC1)S(C)(=O)=O | 68 | – | – | – | – | 174 | –
CS(=O)(=O)N(CC#CCN1CCCC1)S(C)(=O)=O | 15.9 | – | – | – | – | >200 | –
CC(=O)N(C)CC#CCN1CCCC1 | 2.2 | 0.069 | 0.15 | – | 1.01 | – | –
CC(=O)N(CC#CCN(C)C)C(C)=O | 65.6 | 38.8 | 0.013 | 320 | 0.84 | >200 | –
CCN(CC)CC#CCN(C(C)=O)C(C)=O | 7.2 | – | – | – | 0 | 107 | –
CN(CC#CCN1CCCC1)C(=O)C(F)(F)F | 15.6 | 16.9 | 0.003 | 145 | 0.16 | 150 | –

Second part, led by results:

Kd [2] [µM] | SMILES | EC50 [1] [µM] | Relative efficacy [3] | EPMR [4] | Emax [5] | Tremorolytic dose [6] [µM/kg] | Tremorolytic dose [7]
8.6 | CC(=O)N(C(C)=O)C(C)C#CC[N+](C)(C)C (configuration not stated) | 1.2 | 0.055 | 10.7 | 1.01 | – | –
95.4 | CC(C#CCN(C)C)N(C)C(=O)C(F)(F)F (configuration not stated) | – | – | – | <0.1 | >200 | –
5.4 | CC(C#CCN1CCCC1)N(S(C)(=O)=O)S(C)(=O)=O (configuration not stated) | – | – | – | – | 157 | –
0.24 | CC(=O)N(C)C(C)C#CCN1CCCC1 (configuration not stated) | 0.19 | 0.013 | – | 0.83 | 0.6 | –
0.57 | CC(C#CCN1CCCC1)N(C)C(=O)C(F)(F)F (configuration not stated) | – | – | – | 0 | 21.4 | –
21.6 | CC(=O)N(C(C)=O)C(C)C#CCN(C)C (configuration not stated) | 5.5 | 0.03 | 57.9 | 0.99 | 109 | –
13 | CC(C#CCN1CCCC1)N(C)S(C)(=O)=O (configuration not stated) | – | – | – | – | 82 | –
0.15 | CC(C#CCN1CCCC1)N1C(=O)CCC1=O (configuration not stated) | – | – | – | – | 1.2 | –
3.1 | CC(=O)N(C(C)C#CCN1CCCC1)S(C)(=O)=O (configuration not stated) | – | – | – | – | 99.7 | –
91.9 | CC(C#CC[N+](C)(C)C)N(C)C(=O)C(F)(F)F (configuration not stated) | 27.1 | 0.026 | 214 | 0.89 | – | –
